The subject of assay [1] is L1210 murine leukemia cell line. The assay is described as follows: Cell cultures and drug sensitivity assay (inhibition of cell growth, cell counting). The assay is classed as cell-based. The following applies: Mus musculus; L1210 cells, 48 h treatment; read-out: ID50 (nM) L1210. As for the experimental part:
(§1) (b) Cell Cultures and Drug Sensitivity Assay
(§2) L1210 and L1210/DX (Doxorubicin resistant) murine leukemia cell lines were grown in vitro as a stationary suspension culture in RPMI 1640 medium (GIBCO, Grand island, N.Y.) supplemented with 10% fetal calf serum (Flow, Irwine, UK), 2 mM L-glutamine (Gibco Europe, Glasgow, UK), 10 μM β-mercaptoethanol, 100 Units/ml penicillin and 100 μg/ml streptomycin.
(§3) Exponentially growing cells were seeded (1×10^5 cell/ml) in 12-well/plates (Costar, Cambridge, Mass.) and various concentrations of tested compounds were added immediately after seeding.
(§4) The plates were incubated at 37° C. in a humidified, 5% CO2 atmosphere for 48 hr.
(§5) Inhibition of cell growth was evaluated by counting surviving cells in a ZBI Coulter Counter (Hialeah, Fla.). The 50% inhibitory concentration (IC50) was calculated on the derived concentration-response curve. For each tested compound concentration, duplicate cultures were used.

The subject of assay [2] is Calf brain tubulin. Nature of the assay: Tubulin assembly test (repolymerization in presence of CaCl2, turbidity at 340 nm). The assay is classed as biochemical. The following applies: tubulin 1 mg/ml, 1 mM GTP, after 4 mM CaCl2. As for the experimental part: (a) Tubulin Assembly Test
Calf brain tubulin was prepared by two cycles of assembly-disassembly (Shelanski M. L., Gaskin F. and Cantor C. R., Proc. Natl.Acad.Sci. U.S.A. 70, 765-768, 1973; and stored in liquid nitrogen in MAB (0.1M MES, 2.5 mM EGTA, 0.5 mM MgSO4, 0.1 mM EDTA, 0.1 mM DTT, pH 6.4).
All the experiments were carried out on protein stored for less than 4 weeks.
Before each experiment, tubulin was kept 30 min at 4° C. Assembly was monitored by the method of Gaskin et al. (Gaskin F., Cantor C. R. and Shelanski M. L., J.Molec.Biol. 89, 737-758, 1974).
The cuvette (1 cm path) containing tubulin (1 mg/ml) and 1 mM GTP was shifted to 37° C. and continuous turbidity measurements were made at 340 nm on a Perkin-Elmer 557 double wavelength, double beam spectrophotometer equipped with an automatic recorder and a thermostatically regulated sample chamber.
After 30 minutes, 4 mM CaCl2 was added and depolymerisation was measured for 10 minutes as decreased turbidity.
At regular intervals of 15 minutes scaled doses of the tested compounds were added and variations in the turbidity were monitored.
Data are expressed as percentage of repolymerization induced by the tested compounds.

Assay [3] deals with L1210/DX (Doxorubicin resistant) murine leukemia cell line. Nature of the assay: Cell cultures and drug sensitivity assay (inhibition of cell growth, cell counting), Doxorubicin resistant cells. The assay is classed as cell-based. The settings on record: for R.I: L1210/DX versus L1210, 48 h treatment; for IC50: Mus musculus, L1210/DX cells (Doxorubicin resistant), 48 h treatment, read-out: ID50 (nM) L1210/DX. As for the experimental part: as §1, §2, §3, §4, §5

Consider `COC(=O)C1=CC2C(CC(OC(=O)C=Cc3cn(C)cn3)C3(C)C=CC1(O)O3)C(C)=CC(O)C2C(C)C` (single isomer, unassigned; (-)) [Sarcodictyin C], for which the IC50 in assay [1] worked out at 408 ± 21.3 nM; in assay [3], 5790 ± 183 nM. In addition, the “tubulin assembly (%) (percentage of repolymerization induced by the tested compound)” value is reported as 112% in assay [2] (dosage 3.9 μM) and 173% in assay [2] (dosage 39 μM). This compound also came in with a R.I in assay [3] of 14.2.

For the compound `COC(=O)C1=CC2C(CC(OC(=O)C=Cc3cn(C)cn3)C3(C)C=CC1(O)O3)C(C)=CCC2C(C)C` (single isomer, unassigned; (-)) [Sarcodictyin A], the figures for the IC50 in assay [1] and in assay [3] were 539 ± 97.7 nM and 754 ± 80.3 nM, respectively. Besides, the figures for the “tubulin assembly (%) (percentage of repolymerization induced by the tested compound)” value in assay [2] (dosage 4 μM) and in assay [2] (dosage 40 μM) were 70% and 162%, respectively. The R.I in assay [3] was determined as 1.4.

The values are drawn from US5869514A, “Terpenoidic derivatives useful as antitumor agents” (Pharmacia & Upjohn S.p.A., priority 1995, dated 1999).
